# Experimental data as given in PubChem BioAssay (NCI).
#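 Values below derive from 48-hour exposures of cells grown in 96-well plates, with endpoints linearly interpolated between the two concentrations bracketing the appropriate inhibition level. TGI: concentration producing complete growth inhibition.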
# Experiments:
# Experiment in all cases: inhibition of tumour cell growth, NCI panel, 48 h
# CCRF-CEM leukemia = tested on: CCRF-CEM leukemia
# KM20L2 colon = tested on: KM20L2 colon
# DMS 273 small cell lung = tested on: DMS 273 small cell lung
# DLD-1 colon = tested on: DLD-1 colon
# DMS 114 small cell lung = tested on: DMS 114 small cell lung
# LXFL 529 NSCLC = tested on: LXFL 529 NSCLC
# SNB-78 CNS = tested on: SNB-78 CNS
# XF 498 CNS = tested on: XF 498 CNS
# M19-MEL melanoma = tested on: M19-MEL melanoma
# HOP-18 NSCLC = tested on: HOP-18 NSCLC
# RXF-631 renal = tested on: RXF-631 renal
SMILES,TGI (CCRF-CEM leukemia),TGI (KM20L2 colon),TGI (DMS 273 small cell lung),TGI (DLD-1 colon),TGI (DMS 114 small cell lung),TGI (LXFL 529 NSCLC),TGI (SNB-78 CNS),TGI (XF 498 CNS),TGI (M19-MEL melanoma),TGI (HOP-18 NSCLC),TGI (RXF-631 renal)
CC1(C)OC(=O)C(=C2CCC(C(=O)Nc3cccc(C(F)(F)F)c3)N2)C(=O)O1 (stereo not drawn),> 100 µM,> 100 µM,> 100 µM,> 100 µM,> 100 µM,> 100 µM,> 100 µM,89.8 µM,> 100 µM,> 100 µM,–
O=C(NCCN1CCCCC1)c1cccc(I)c1,> 100 µM,–,–,–,–,–,–,–,–,–,–
C1CSCC2(COC2)CSCCSCC2(COC2)CS1,> 100 µM,–,–,–,–,–,–,–,–,–,–
COc1cc2cc(C(=O)N3CC(CCl)c4ccc([N+](C)(C)Cc5ccccc5[N+](=O)[O-])cc43)[nH]c2c(OC)c1OC (stereo not drawn),> 23.8 µM,–,–,–,–,–,–,–,–,–,–
CCSC1=N/C(=C\c2ccco2)C(=O)N1,> 100 µM,–,–,–,–,–,–,–,–,–,–
Cc1c(/C=N/NC(=S)N2CCCCC2)c(=O)n(-c2ccccc2)n1C,> 100 µM,–,–,–,–,–,–,–,–,–,–
O=C1CSC(c2ccccc2O)N1c1ccc(-n2c(-c3ccccc3)nc3ccccc3c2=O)cc1 (stereo not drawn),> 100 µM,–,–,–,–,–,–,–,–,–,–
CSc1nc(=O)cnn1C,> 100 µM,–,–,–,–,–,–,–,–,–,–
CC(C)(C)OC(=O)CCCCCNC(=O)CCCCCNC(=O)CCC(CN(CC(=O)OCc1ccccc1)CC(=O)OCc1ccccc1)N(CC(=O)OCc1ccccc1)CC(=O)OCc1ccccc1 (stereo not drawn),> 100 µM,–,–,–,–,–,–,–,–,–,–
COc1cc([C@@H]2c3cc4c(cc3[C@@H](Nc3ccc(Cl)cc3C(=O)c3ccccc3)[C@H]3COC(=O)[C@H]23)OCO4)cc(OC)c1OC,> 100 µM,–,–,–,–,–,–,–,–,–,–
COc1ccc(C2Cc3cc(OC)c(OC)c(OC)c3C2)cc1 (stereo not drawn),> 100 µM,> 100 µM,> 100 µM,> 100 µM,> 100 µM,–,> 100 µM,54.5 µM,> 100 µM,> 100 µM,–
COC(=O)C(=O)C(C(=O)C(=O)Nc1ccc(C)cc1C)c1nc2ccc(Cl)cc2[nH]c1=O (stereo not drawn),> 100 µM,–,–,–,–,–,–,–,–,–,–
O=C(O)CSc1n[nH]c(-c2ccco2)n1,> 100 µM,> 100 µM,> 100 µM,> 100 µM,–,> 100 µM,> 100 µM,> 100 µM,> 100 µM,–,> 100 µM
Cc1sc2nc3n(c(=O)c2c1C)N=CN(c1ccc(Cl)cc1)C3,> 100 µM,–,–,–,–,–,–,–,–,–,–
CCOc1ccc(NC(=O)C(=O)Nn2c(N)nnc2N)cc1,> 100 µM,–,–,–,–,–,–,–,–,–,–
CCCCOC/N=C(/N)NC#N,–,> 100 µM,> 100 µM,> 100 µM,> 100 µM,> 100 µM,> 100 µM,> 100 µM,–,> 100 µM,> 100 µM
COC(=O)/C=C(\C)CCC1SC1(C)C (stereo not drawn),> 100 µM,> 100 µM,> 100 µM,> 100 µM,> 100 µM,> 100 µM,> 100 µM,> 100 µM,> 100 µM,> 100 µM,–

SMILES,TGI (CCRF-CEM leukemia),TGI (KM20L2 colon),TGI (DMS 273 small cell lung),TGI (DLD-1 colon),TGI (DMS 114 small cell lung),TGI (LXFL 529 NSCLC),TGI (SNB-78 CNS),TGI (XF 498 CNS),TGI (M19-MEL melanoma),TGI (HOP-18 NSCLC),TGI (RXF-631 renal)
CCCc1cc(OC(=O)c2c(O)cc(OC)cc2CCC)cc(O)c1C(=O)O,95.4 µM,> 100 µM,95.7 µM,> 100 µM,56 µM,62.9 µM,64.1 µM,74.4 µM,> 100 µM,–,63.8 µM
COc1ccc(-c2nc(-c3cnccn3)n(C3OC(CO)C(O)C3O)n2)cc1 (stereo not drawn),> 10 µM,–,–,–,–,–,–,–,–,–,–
O=C1NC(N/N=C\c2ccccc2)=N/C1=C/c1ccccc1,> 100 µM,–,–,–,–,–,–,–,–,–,–
C=CCN1CCC(c2cc(C(=O)OCC)[nH]c2-c2cc(C)no2)C1=O (stereo not drawn),> 100 µM,–,–,–,–,–,–,–,–,–,–
CCCCCCCCC(O)c1ccc(/C=C\C(O)CCCC(=O)O)s1 (stereo not drawn),> 100 µM,> 100 µM,> 100 µM,> 100 µM,> 100 µM,> 100 µM,> 100 µM,> 100 µM,> 100 µM,> 100 µM,–
O=C1OC([C@H](O)c2cccnc2)c2ccccc21 (stereo partly drawn),> 10 µM,–,–,–,–,–,–,–,–,–,–
COC(=O)/C=C/[C@@H]1[C@H](C)N1S(=O)(=O)c1ccc(C)cc1 (stereo partly drawn),> 100 µM,–,–,–,–,–,–,–,–,–,–
CN(C)CCN1CCc2c([nH]c3ccccc23)C1c1cccnc1 (stereo not drawn),> 100 µM,> 100 µM,> 100 µM,> 100 µM,> 100 µM,–,> 100 µM,–,> 100 µM,> 100 µM,–
O=C(/C=C/c1ccccc1O)c1ccccc1Cl,88.5 µM,> 100 µM,> 100 µM,> 100 µM,58 µM,> 100 µM,> 100 µM,> 100 µM,> 100 µM,> 100 µM,> 100 µM
NC(=O)[N+](=CC(=S)Nc1ccccc1Cl)C(N)=O,> 100 µM,–,–,–,–,–,–,–,–,–,–
O=C1NC2(CCNCC2)Oc2ccccc21,> 100 µM,–,–,–,–,–,–,–,–,–,–
O=[N+]([O-])c1cccc(Nc2nc(Cl)nc(Cl)n2)c1,> 100 µM,> 100 µM,> 100 µM,> 100 µM,–,> 100 µM,> 100 µM,> 100 µM,> 100 µM,–,> 100 µM
O=c1[nH][nH]c(=O)c2c1ccc1oc3ccccc3c12,> 100 µM,–,–,–,–,–,–,–,–,–,–
COc1ccccc1C(=O)N(Cc1ccccc1)c1ccc(Cl)c(C(=O)OC(C)C)c1,> 100 µM,> 100 µM,37.5 µM,> 100 µM,56 µM,> 100 µM,78 µM,43.4 µM,> 100 µM,56.3 µM,> 100 µM
O=C1Oc2ccccc2C(=O)/C1=C/N1C(=O)CNC1=S,> 100 µM,–,–,–,–,–,–,–,–,–,–
COc1ccc2[nH]c3c(c2c1)[C@H]1CCC(C(C)(C)C)C[C@H]1[C@H]1C(=O)N(c2ccccc2)C(=O)[C@@H]31 (stereo partly drawn),> 52 µM,> 100 µM,> 100 µM,> 96.2 µM,> 76.7 µM,> 100 µM,–,31 µM,> 94.2 µM,99.6 µM,57.5 µM
Cc1[nH]c(-c2ccccc2)c2nc(N(C)C)oc(=O)c12,> 100 µM,–,–,–,–,–,–,–,–,–,–
